Experiment: Observation of general condition in rat STZ-induced diabetes model
Assay type: in vivo
Settings: 20 mg/kg oral, number of animals, 10 per group
Procedure: Compound 9 (50 mg/mL) was diluted with water for injection to obtain a 1 mg/mL administration specimen. For the specimens to be administered at 0.1 mg/mL and 0.01 mg/mL, the specimen to be administered at 1 mg/mL was diluted stepwise with water for injection. Each administration specimen was divided into PP disposable tubes every day and stored in a storehouse (freezer: MDF-MU339H-PJ, PHC Corporation) under the condition of freezing (−30° C. to −20° C., measured value: −26.4 to −24.5° C.). Preparation was performed on the day before the start of administration.
Water for injection was added to and dissolved in Pregabalin taken out from the capsule to obtain 2 mg/mL. It was prepared before use.
• Animal species: rat (SPF) • Strain: Crl: CD (SD) • Date of animal acquisition, gender, age in weeks, number of animals acquired, and weight range after 1 day of acquisition • First and second courses: Apr. 6, 2022, male, 7 weeks old, 35 animals, 217 to 237 g • Third and fourth courses: Apr. 13, 2022, male, 7 weeks old, 35 animals, 216 to 235 g • Source: […].
• Dose volume: calculated at 2 mL/kg based on the body weight on the day of administration. • Number of times of administration: once • Day of administration: 7 days before the day of starting administration of the test substance.
• Dose volume: calculated at 1 mL/kg based on the body weight on the day of administration. • Number of times of administration: 9 times • Interval of administration: once every 3 days (evaluation was performed on the day after administration) • Day of starting administration: day 8 of STZ administration (day of STZ administration is counted as day 1).
• Dose volume: calculated at 10 mL/kg based on the body weight on the day of administration. • Number of times of administration: Administration was performed once on the day of evaluation of neuropathic pain, twice in total, and on the other days of administration, a vehicle for a control substance (water for injection) was orally administered.
• Observation of general condition • Observation was performed once a day.

Measured: general condition

CC(C)C[C@H](CN)CC(=O)O [Pregabalin, reference compound]
10: day 1 of STZ administration | day 2 of STZ administration | day 3 of STZ administration | day 4 of STZ administration | day 5 of STZ administration | day 6 of STZ administration | day 7 of STZ administration | day 8 of STZ administration | day 9 of STZ administration | day 10 of STZ administration | day 11 of STZ administration | day 12 of STZ administration | day 13 of STZ administration | day 14 of STZ administration | day 15 of STZ administration | day 16 of STZ administration | day 17 of STZ administration | day 18 of STZ administration | day 19 of STZ administration | day 20 of STZ administration | day 21 of STZ administration | day 22 of STZ administration | day 23 of STZ administration | day 24 of STZ administration | day 25 of STZ administration | day 26 of STZ administration | day 27 of STZ administration | day 28 of STZ administration | day 29 of STZ administration | day 30 of STZ administration | day 31 of STZ administration | day 32 of STZ administration | day 33 of STZ administration | day 34 of STZ administration | day 35 of STZ administration

From US20260158102A1, “CYCLIC PEPTIDE DERIVATIVE COMPOSITION FOR TREATING OR PREVENTING NEUROPATHIC PAIN AND/OR INFLAMMATORY PAIN” (DKS Co. Ltd., priority 2022, published 2026)
